Laboratory results reported in patent publication EP0458892B1, “USE OF CHLORMETHIAZOLE IN THE MANUFACTURE OF A MEDICAMENT FOR THE PREVENTION AND/OR TREATMENT OF NEURODEGENERATION” (priority 1989, dated 1990).

How the values were obtained:
[1] = test system: CA1/CA2 hippocampal neurones; test: Gerbil carotid occlusion ischaemia, test compound administered prior to induction of ischaemia; format: in vivo; conditions: gerbils; for % Damage to CA1/CA2 Hippocampal Neurones: assessed after 4 days
Description: (§1) The detailed mechanisms that underlie ischaemia-induced degeneration of hippocampal neurones have yet to be clarified, but the above mentioned gerbil test system has been widely used as a predictive model of neuroprotective activity (see, for example, B.J. Alps, C. Calder, W.K. Hass and A.D. Wilson, Brit. J. Pharmacol., 1988, 93, 877-883; R. Gill, A.C. Foster and G.N. Woodruff, J. Neuroscience, 1987, 7, 3343-3349).
(§2) Ischaemia was induced in gerbils by occlusion of the carotid arteries following the accepted general procedure as described in, for example, EP 230 370 and R. Gill, A.C. Foster and G.N. Woodruff, J. Neuroscience, 1987, 7, 3343-3349.
(§3) Ischaemia was induced in gerbils by 10 minute occlusion of both carotid arteries. Restoration of blood flow after occlusion was checked visually and the animals were allowed to survive for 4 days. The extent of neuronal degeneration in the hippocampus was then assessed. The test compounds were administered (i.p.) as a single dose 30 minutes prior to occlusion.

[2] = test system: CA1/CA2 hippocampal neurones; test: Gerbil carotid occlusion ischaemia, test compound administered following induction of ischaemia; format: in vivo; conditions: gerbils; for % Damage to CA1/CA2 Hippocampal Neurones: assessed after 4 days
Description: as §1, §2, §3
The general procedure described in (a) above was followed except that the test compound was administered (i.p.) as a single dose at the stated time following the end of the occlusion. No administration was made prior to the occlusion.

C[C@]12N[C@H](Cc3ccccc31)c1ccccc12 [MK 801]
% Damage to CA1/CA2 Hippocampal Neurones ([1]; 3mg/kg i.p. single dose 30 minutes prior to 10 minute occlusion of both carotid arteries): < 5%

Cc1ncsc1CCCl [Chlormethiazole ethanedisulphonate]
% Damage to CA1/CA2 Hippocampal Neurones ([1]; 50mg/kg i.p. single dose 30 minutes prior to 10 minute occlusion of both carotid arteries): 37.6 ± 13.4%
% Damage to CA1/CA2 Hippocampal Neurones ([1]; 100mg/kg i.p. single dose 30 minutes prior to 10 minute occlusion of both carotid arteries): < 5%
% Damage to CA1/CA2 Hippocampal Neurones ([2]; 50mg/kg i.p. single dose 30 minutes after the end of 10 minute occlusion): 69.4 ± 6.9%
% Damage to CA1/CA2 Hippocampal Neurones ([2]; 100mg/kg i.p. single dose 30 minutes after the end of 10 minute occlusion): 12.8 ± 10.4%
% Damage to CA1/CA2 Hippocampal Neurones ([2]; 100mg/kg i.p. single dose 1 hour after the end of 10 minute occlusion): 14.3 ± 8.7%
% Damage to CA1/CA2 Hippocampal Neurones ([2]; 100mg/kg i.p. single dose 2 hours after the end of 10 minute occlusion): 7.25 ± 4.8%
% Damage to CA1/CA2 Hippocampal Neurones ([2]; 100mg/kg i.p. single dose 6 hours after the end of 10 minute occlusion): 45.6 ± 14%

Cc1ncsc1CCCl [chlormethiazole, 5-(2-chloroethyl)-4-methylthiazole]
damage to the CA1/CA2 hippocampal neurones (result in words) ([1]; i.p. single dose 30 minutes prior to occlusion, summary of Table 1): effective in reducing the damage to the CA1/CA2 hippocampal neurones
damage to the CA1/CA2 hippocampal neurones (result in words) ([2]; i.p. single dose after the ischaemic insult, summary of Table 2): effective in reducing the damage to the CA1/CA2 hippocampal neurones

CC(C(O)c1ccc(O)cc1)N1CCC(Cc2ccccc2)CC1 (centres unmarked) [Ifenprodil]
% Damage to CA1/CA2 Hippocampal Neurones ([1]; 4mg/kg i.p. single dose 30 minutes prior to 10 minute occlusion of both carotid arteries): 62 ± 8.0%
